# Assay results from US5198441A, “Derivatives of 1,2-dihydro 2-oxo quinoxalines, their preparation and their use in therapy” (Pierre Fabre Medicament, priority 1989, dated 1993).
# Columns and labels:
# [1] = system: trachea contractions caused by histamine; assay: Antagonism of the effect of histamine (contraction of isolated guinea pig trachea); conditions: Cavia porcellus, 5 min; histamine dihydrochloride 10 μg/ml; 5 minutes contact; 37° C.
# Protocol: (§1) The compounds of the invention were subjected to pharmacological tests which have shown their interest as broncholytics. For this purpose, the compounds were studied for their effect against contractions caused by various products in accordance with the following protocol.
# (§2) A piece of the trachea of a male tri-color guinea pig of an average weight of 400 g is cut in a spiral and mounted (about 2.5 cm) in an isolated organ cell maintained thermostatically at 37° C. and filled with oxygenated tyrode. The isometric contractions caused by the different mediators are recorded by means of a Gould Statham UC2 detector (Gould Inc. Oxnard, Calif., USA) or UF1 Palmer Bioscience detector connected to a potentiometric recorder (Linseiss, Selb, Federal Republic of Germany). At the start of the experiment, the piece of trachea was placed under a tension of 1 g and set aside for one hour.
# (§3) The following mediator concentrations are used (concentrations generally causing maximum contraction): histamine dihydrochloride, 10 μg/ml; acetylcholine chloride, 1 μg/ml; potassium salt of leucotrine D4, 0.05 μg/ml; potassium chloride, 1850 μg/ml. The concentrations of agents used produce contractions which become maximum within 5 to 15 minutes, depending on the mediators, and then remain at that level. One concentration of the product studied is administered for each contraction,and the product is left in contact with the trachea for 5 minutes. The inhibition, if any, obtained at the end of this time is measured (percentage variation in the amplitude of the contraction). The trachea is then washed for 15 seconds and set aside for about 10 minutes (time necessary to return to the base tone) before causing a new contraction.
# (§4) The water-insoluble products are diluted in 0.178% (v/v) (final concentration in the bath) of dimethyl sulfoxide (DMSO).
# (§5) The 50% inhibitory concentrations (IC 50) are calculated using an SAS program (Statistical Analysis System) based on Bliss and Cattel (Bliss C.I. and Cattel McK. Biological Assay Ann. Rev. Physiol. 5, 479, 1943).
# [2] = system: trachea contractions caused by acetylcholine; assay: Antagonism of the effect of acetylcholine (contraction of isolated guinea pig trachea); conditions: Cavia porcellus, 5 min; acetylcholine chloride 1 μg/ml; 5 minutes contact; 37° C.
# Protocol: as §1, §2, §3, §4, §5
# [3] = system: trachea contractions caused by potassium chloride; assay: Antagonism of the effect of potassium chloride (contraction of isolated guinea pig trachea); conditions: Cavia porcellus, 5 min; potassium chloride 1850 μg/ml; 5 minutes contact; 37° C.
# Protocol: as §1, §2, §3, §4, §5
# [4] = system: trachea contractions caused by leucotriene D4; assay: Antagonism of the effect of leucotriene D4 (contraction of isolated guinea pig trachea); conditions: Cavia porcellus, 5 min, leucotriene D4 potassium salt 0.05 μg/ml, 5 minutes contact; for inhibition at 10 µg/mL: 10 μg/ml, percentage variation in the amplitude of the contraction
# Protocol: as §1, §2, §3, §4, §5
SMILES,IC50 [1],IC50 [2],IC50 [3],inhibition at 10 µg/mL [4],IC50 ([4]; 37° C.)
"CC(C)=CCn1c(=O)c(CCCO)nc2ccccc21 [Compound 1, 1-prenyl 3-(3-hydroxypropyl) 1,2-dihydro 2-oxo quinoxaline]",0.9 µg/mL,25.5 µg/mL,5.6 µg/mL,-71%,–
"CCCn1c(=O)c(CCCOC(=O)NC)nc2ccccc21 [Compound 3, 1-propyl 3-(3-methylcarbamoyloxypropyl) 1,2-dihydro 2-oxo quinoxaline]",3.3 µg/mL,7.1 µg/mL,–,–,–
C=CCn1c(=O)c(CCCO)nc2ccc(Cl)cc21 [Compound 5],–,–,17 µg/mL,–,–
C=CCn1c(=O)c(CCCO)nc2ccccc21 [Compound 8],–,–,12.3 µg/mL,–,–
CCCn1c(=O)c(CCCO)nc2ccccc21 [Compound 11],3.45 µg/mL,–,–,–,–
CC=CCn1c(=O)c(CCCO)nc2ccccc21 [Compound 12],0.54 µg/mL,15.5 µg/mL,6.2 µg/mL,-71%,–
O=c1c(CCCO)nc2ccccc2n1CC1CC1 [Compound 15],–,–,–,-64%,–
"Cn1c(=O)c2[nH]cnc2n(C)c1=O [theophylline, reference compound]",11.5 µg/mL,65 µg/mL,21 µg/mL,–,13.5 µg/mL

# Continued, in another order:
IC50 [1],IC50 [2],IC50 [3],SMILES,inhibition at 10 µg/mL [4],IC50 ([4]; 37° C.)
0.43 µg/mL,–,–,O=c1c(CCCO)nc2ccccc2n1Cc1ccccc1 [Compound 17],–,–
1.13 µg/mL,16.5 µg/mL,–,CC=CCn1c(=O)c(CCC(C)O)nc2ccccc21 (stereo not drawn) [Compound 19],–,–
1.55 µg/mL,9.7 µg/mL,–,CC(C)=CCn1c(=O)c(CCC(C)O)nc2ccccc21 (stereo not drawn) [Compound 20],–,–
1.3 µg/mL,–,–,COc1ccc(Cn2c(=O)c(CCC(C)O)nc3ccccc32)cc1 (stereo not drawn) [Compound 24],–,–
